Measured values published in US7303876B2 (Applera Corporation, priority 2000, dated 2007).
Where two headings read alike, the source gives them in different places. One block for each compound: values may come before it.

How the values were obtained:
Liver tissue [1] = experiment: Liver tissue disaggregation by 1% surfactant with or without Proteinase K at 60° C.; set-up: Tissue Disaggregation: scale not given here; conditions: for Tissue Disaggregation: 60° C., 1% surfactant
Method: To evaluate the ability of various cationic surfactants to increase the digestion of tissue by Proteinase K, liver slices were digested using reaction compositions including one of the sixteen surfactants (shown in Table 4), both with and without Proteinase K. The reducing agent dithiothreitol (DTT) was included to evaluate the effect of reducing conditions on tissue digestion. […] One of the sixteen surfactants was added to one pair of tubes to yield a final concentration of 1% surfactant. The seventeenth pair of tubes served as non-surfactant controls. One milligram (mg) of Proteinase K was added to one tube of each of the seventeen pairs.
PK=presence or absence of Proteinase K in the reaction composition; Y=Proteinase K was present; N=Proteinase K was not present in the reaction composition.

[2] = Solubility of surfactants (0.5% Sarkosyl, LDS, SDS, CTAB; 5.0% others) in salt solutions
Method: In certain instances, the solubility of detergents in high salt may relate to on the composition of the salt and the detergent itself. A mixing experiment was performed to examine the solubility of a variety of anionic, cationic, and nonionic surfactants in different salt compositions. […] The salt solutions contained Lil, Nal, KI, Rbl, Csl , GuSCN, GuHCl, or NaClO4, at pH 6.0 or 10.0. […] The solubility of the surfactants was scored as either soluble or insoluble. The solubility of the surfactant in the salt solution was determined initially by visual observations for cloudiness or precipitate formation. The resulting solutions were also centrifuged to verify the absence of a precipitate by the absence of a precipitate pellet.

slices of liver = experiment: Maceration of liver slices by reaction compositions at 65° C.
Method: Initially, a series of reaction compositions were analyzed for their ability to disaggregate a biological sample, e.g., slices of liver. These reaction compositions comprised 100 mM Tris, pH 8.0, 20 mM dithiothreitol (DTT), and optionally,1 mg/ml Proteinase K, surfactants (e.g., cationic, nonionic and anionic detergents), chaotropes, or the additive 1-methyl-2-pyrollidinone (Sigma). Each reaction compositions was placed in a tube with a slice of liver and then incubated at 65° C. The tubes were observed periodically to determine which reaction compositions were able to efficiently macerate the sample.

Liver tissue [3] = experiment: Nucleic acid release from liver slices, pH 6, 45° C., 30 minutes, surfactants and additives; conditions: with 1-methyl-2-pyrolidinone
Method: To compare CTACl to CTAB, those two surfactants were evaluated in parallel along with hexadecyltrimethylammonium bromide (HDTAB), hexadecyltrimethylammonium chloride (HDTACl), and Sarkosyl. Three additives, phenylglyoxal, acridine orange (e.g., Sigma #A6014), and 1-methyl-2-pyrolidinone, were also evaluated. Phenylglyoxal was tested to determine if it would reduce RNAse activity. […] 1-Methyl-2-pyrrolidinone was tested to see if it would enhance solubility of the sample by various reaction compositions.
Slices of liver-tissue (100-200 mg/sample) were placed into twenty-one Eppendorf tubes. Four hundred microliters of a reaction composition, comprising 100 mM MES, pH 6, 20 mM CaCl2, and 1 mg Proteinase K, was added to each tube.
The tubes were incubated at 45° C. for 30 minutes with mixing (Eppendorf Thermomixer, Model 5436). Surfactant: protease complexes were solubilized using methods the same as or similar to those described in Example 7. Remaining tissue fragments were removed by centrifugation using methods the same as or similar to those described in Example 7. The supernatant was phenol extracted, isopropanol precipitated, and ethanol washed using methods the same as or similar to those described in Example 6.

[4] = 1 mg/ml Proteinase K, 16-24 hr, 65° C., additive 0.1%
[5] = 1 mg/ml Proteinase K, 16-24 hr, 65° C., additive 1%
[6] = 1 mg/ml Proteinase K, 1 hr, 65° C., additive 0.1%
[7] = 1 mg/ml Proteinase K, 1 hr, 65° C., additive 1%
[8] = No Proteinase K, 16-24 hr, 65° C., additive 2%
[9] = No Proteinase K, 2-5 hr, 65° C., additive 2%
[10] = Fifteen Minutes Incubation, Proteinase K not present (N)
[11] = Fifteen Minutes Incubation, Proteinase K present (Y)
[12] = Fifty-Two Minutes Incubation, Proteinase K not present (N)
[13] = Fifty-Two Minutes Incubation, Proteinase K present (Y)
[14] = No Proteinase K, 72 hr, 65° C., additive 2%

Compound: O[C@H](CS)[C@H](O)CS (racemic) [DTT, dithiothreitol]
effect of reducing agent on tissue disaggregation (Liver tissue [1]; 20 mM dithiothreitol): did not seem to significantly effect tissue disaggregation

Solubility of surfactant ([2]; pH 6): S
Solubility of surfactant ([2]; pH 10): S
Compound: polyoxyethylenesorbitan monopalmitate [Tween 40]

Solubility of surfactant ([2]; pH 6): S
Solubility of surfactant ([2]; pH 10): S
Compound: (octylphenoxy)polyethoxyethanol [IGEPA]

Compound: C[C@H](CCC(=O)O)[C@H]1CC[C@H]2[C@@H]3[C@H](O)C[C@@H]4C[C@H](O)CC[C@]4(C)[C@H]3CC[C@]12C [Chenodeoxycholic Acid]
maceration of liver slice (slices of liver; [4]): 0%
maceration of liver slice (slices of liver; [5]): 0%
maceration of liver slice (slices of liver; [6]): 0%
maceration of liver slice (slices of liver; [7]): 0%
maceration of liver slice (slices of liver; [8]): 0%

Compound: C[C@H](CCC(=O)O)[C@H]1CC[C@H]2[C@@H]3[C@H](O)C[C@@H]4C[C@H](O)CC[C@]4(C)[C@H]3C[C@H](O)[C@]12C [Cholic Acid]
maceration of liver slice (slices of liver; [8]): 0%

Compound: CCCCC(CC)COS(=O)(=O)[O-].[Na+] (stereo not shown) [NiaProof Type 8]
maceration of liver slice (slices of liver; [4]): 0%
maceration of liver slice (slices of liver; [5]): 0%
maceration of liver slice (slices of liver; [6]): 0%
maceration of liver slice (slices of liver; [7]): 0%
maceration of liver slice (slices of liver; [9]): 0%

Tissue Disaggregation (Liver tissue [1]; [10]): 0
Tissue Disaggregation (Liver tissue [1]; [11]): 3
Tissue Disaggregation (Liver tissue [1]; [12]): 0
Tissue Disaggregation (Liver tissue [1]; [13]): 3
Compound: CCCCCCCCCCCCCCCCCC[N+](C)(C)Cc1ccccc1.[Cl-] [Mackernium SDC-85, Stearalkonium chloride]

Compound: CCCCCCCCS(=O)(=O)O [Octyl sulfonate]
maceration of liver slice (slices of liver; [14]): 0%

Tissue Disaggregation (Liver tissue [1]; [10]): 0
Tissue Disaggregation (Liver tissue [1]; [11]): 1
Tissue Disaggregation (Liver tissue [1]; [12]): 0
Tissue Disaggregation (Liver tissue [1]; [13]): 1
Compound: Quaternium-84 [Mackernium NLE]

Tissue Disaggregation (Liver tissue [1]; [10]): 0
Tissue Disaggregation (Liver tissue [1]; [11]): 1
Tissue Disaggregation (Liver tissue [1]; [12]): 0
Tissue Disaggregation (Liver tissue [1]; [13]): 4
Compound: CCCCCCCC/C=C\CCCCCCCC[N+](C)(C)Cc1ccccc1.[Cl-] [Mackernium KP, olealkonium chloride]

Compound: CCCCCCCCCCCCCCCC[N+](C)(C)C.[Cl-] [HDTACl, hexadecyltrimethylammonium chloride]
high molecular weight nucleic acid by gel electrophoresis (Liver tissue [3]): High molecular weight nucleic acid was also observed

Compound: CCCCCCCCCCCC[N+](C)(C)Cc1ccccc1.[Br-] [Benzyldimethyldodecylammonium bromide]
Tissue Disaggregation (Liver tissue [1]; [10]): 0
Tissue Disaggregation (Liver tissue [1]; [11]): 0
Tissue Disaggregation (Liver tissue [1]; [12]): 0
Tissue Disaggregation (Liver tissue [1]; [13]): 1

Compound: C[C@H](CCC(=O)NCCS(=O)(=O)O)[C@H]1CC[C@H]2[C@@H]3[C@H](O)C[C@@H]4C[C@H](O)CC[C@]4(C)[C@H]3C[C@H](O)[C@]12C [Taurocholic Acid]
maceration of liver slice (slices of liver): 0%

Solubility of surfactant ([2]; pH 6): S
Solubility of surfactant ([2]; pH 10): S
Compound: t-octylphenoxypolyethoxyethanol [Triton X-100]
maceration of liver slice (slices of liver; [4]): 0%
maceration of liver slice (slices of liver; [5]): 100%
maceration of liver slice (slices of liver; [6]): 0%
maceration of liver slice (slices of liver; [7]): 30%
maceration of liver slice (slices of liver; [9]): 0%
maceration of liver slice (slices of liver; [8]): 0%

Compound: C[C@H](CCC(=O)NCCS(=O)(=O)O)[C@H]1CC[C@H]2[C@@H]3[C@H](O)C[C@@H]4C[C@H](O)CC[C@]4(C)[C@H]3CC[C@]12C [Taurochenodeoxycholic Acid]
maceration of liver slice (slices of liver; [4]): 0%
maceration of liver slice (slices of liver; [5]): 0%
maceration of liver slice (slices of liver; [6]): 0%
maceration of liver slice (slices of liver; [7]): 0%

Solubility of surfactant ([2]; pH 6): S
Solubility of surfactant ([2]; pH 10): S
Compound: polyoxyethylenesorbitan monostearate [Tween 60]

Tissue Disaggregation (Liver tissue [1]; [10]): 0
Tissue Disaggregation (Liver tissue [1]; [11]): 1
Tissue Disaggregation (Liver tissue [1]; [12]): 0
Tissue Disaggregation (Liver tissue [1]; [13]): 2
Compound: Benzalkonium Chloride

Solubility of surfactant ([2]; 4 M GuSCN, Urea, pH 6.0): S
Solubility of surfactant ([2]; 4 M GuSCN, Urea, pH 10.0): S
Solubility of surfactant ([2]; 4 M NaI, Urea, pH 6.0): S(V)
Solubility of surfactant ([2]; 6 M GuHCl, pH 6.0): S
Solubility of surfactant ([2]; 6 M GuHCl, pH 10.0): S
Solubility of surfactant ([2]; 6 M GuSCN, pH 6.0): S
Solubility of surfactant ([2]; 6 M GuSCN, pH 10.0): S
Solubility of surfactant ([2]; 6 M NaI, pH 6.0): S
Compound: CCCCCCCCCCCCOCCOCCOCCO [Brij 30, triethyleneglycol monolauryl ether]

Solubility of surfactant ([2]; pH 6): S
Solubility of surfactant ([2]; pH 10): S
Compound: polyoxyethylenesorbitan monolaurate [Tween 21]

Compound: C[C@H](CCC(=O)NCCS(=O)(=O)O)[C@H]1CC[C@H]2[C@@H]3CC[C@@H]4C[C@H](O)CC[C@]4(C)[C@H]3C[C@H](O)[C@]12C [Taurodeoxycholic Acid]
maceration of liver slice (slices of liver; [4]): 0%
maceration of liver slice (slices of liver; [5]): 0%
maceration of liver slice (slices of liver; [6]): 0%
maceration of liver slice (slices of liver; [7]): 0%

Compound: CCCCCCCCCCCCCCCC[N+](C)(C)Cc1ccccc1.[Br-] [Benzyldimethylhexadecylammonium bromide]
Tissue Disaggregation (Liver tissue [1]; [10]): 0
Tissue Disaggregation (Liver tissue [1]; [11]): 0
Tissue Disaggregation (Liver tissue [1]; [12]): 0
Tissue Disaggregation (Liver tissue [1]; [13]): 1

Compound: N#CS.N=C(N)N [Guanidinium thiocyanate]
maceration of liver slice (slices of liver; 1 mg/ml Proteinase K, 2-5 hr, 65° C., additive 1 M): 25%
maceration of liver slice (slices of liver; No Proteinase K, 2-5 hr, 65° C., additive 1 M): 0%

Compound: CCCCCCCC(=O)O [Octanonic Acid]
maceration of liver slice (slices of liver; [14]): 0%

Compound: CCCCCCCCCCCCCC[N+](C)(C)Cc1ccccc1.[Cl-] [Benzyldimethyltetradecyl ammonium chloride]
Tissue Disaggregation (Liver tissue [1]; [10]): 0
Tissue Disaggregation (Liver tissue [1]; [11]): 0
Tissue Disaggregation (Liver tissue [1]; [12]): 0
Tissue Disaggregation (Liver tissue [1]; [13]): 1

Compound: CCCCCCCCCCCCCC[N+](C)(C)C.[Br-] [TTAB, tetradecyltrimethylammonium bromide]
Tissue Disaggregation (Liver tissue [1]; [10]): 0
Tissue Disaggregation (Liver tissue [1]; [11]): 0
Tissue Disaggregation (Liver tissue [1]; [12]): 0
Tissue Disaggregation (Liver tissue [1]; [13]): 1

Solubility of surfactant ([2]; pH 6): S
Solubility of surfactant ([2]; pH 10): S
Compound: polyoxyethylenesorbitan monooleate [Tween 80]
maceration of liver slice (slices of liver; [4]): 0%
maceration of liver slice (slices of liver; [5]): 0%
maceration of liver slice (slices of liver; [6]): 0%
maceration of liver slice (slices of liver; [7]): 0%

Compound: C[C@H](CCC(=O)NCC(=O)O)[C@H]1CC[C@H]2[C@@H]3[C@H](O)C[C@@H]4C[C@H](O)CC[C@]4(C)[C@H]3C[C@H](O)[C@]12C [Glycocholic Acid]
maceration of liver slice (slices of liver; [4]): 0%
maceration of liver slice (slices of liver; [5]): 0%
maceration of liver slice (slices of liver; [6]): 0%
maceration of liver slice (slices of liver; [7]): 0%

Compound: C[N+](C)(C)C.[Cl-] [Tetramethylammonium chloride]
maceration of liver slice (slices of liver; 1 mg/ml Proteinase K, 16-24 hr, 65° C., additive 0.1 M): 0%
maceration of liver slice (slices of liver; 1 mg/ml Proteinase K, 16-24 hr, 65° C., additive 1 M): 0%
maceration of liver slice (slices of liver; 1 mg/ml Proteinase K, 1 hr, 65° C., additive 0.1 M): 0%
maceration of liver slice (slices of liver; 1 mg/ml Proteinase K, 1 hr, 65° C., additive 1 M): 0%
maceration of liver slice (slices of liver; No Proteinase K, 16-24 hr, 65° C., additive 0.1 M): 0%
maceration of liver slice (slices of liver; No Proteinase K, 16-24 hr, 65° C., additive 1 M): 0%

Compound: Cl.N=C(N)N [Guanidinium chloride]
maceration of liver slice (slices of liver; 1 mg/ml Proteinase K, 2-5 hr, 65° C., additive 2 M): 0%
maceration of liver slice (slices of liver; No Proteinase K, 2-5 hr, 65° C., additive 2 M): 0%
